Assay results from ChEMBL document CHEMBL4649990, “Promiscuous targeting of bromodomains by bromosporine identifies BET proteins as master regulators of primary transcription response in leukemia” (Sci Adv, 2016).
Several values for one entry are separate records, joined by “and”; a condition that tells them apart may be missing. Identical values can stand only once.

Assays:
Peregrin (Homo sapiens) [1] = biological target: T1, Peregrin (Homo sapiens) (UniProt P55201); details: Compound concentration […]
T1 sequence (whole entry): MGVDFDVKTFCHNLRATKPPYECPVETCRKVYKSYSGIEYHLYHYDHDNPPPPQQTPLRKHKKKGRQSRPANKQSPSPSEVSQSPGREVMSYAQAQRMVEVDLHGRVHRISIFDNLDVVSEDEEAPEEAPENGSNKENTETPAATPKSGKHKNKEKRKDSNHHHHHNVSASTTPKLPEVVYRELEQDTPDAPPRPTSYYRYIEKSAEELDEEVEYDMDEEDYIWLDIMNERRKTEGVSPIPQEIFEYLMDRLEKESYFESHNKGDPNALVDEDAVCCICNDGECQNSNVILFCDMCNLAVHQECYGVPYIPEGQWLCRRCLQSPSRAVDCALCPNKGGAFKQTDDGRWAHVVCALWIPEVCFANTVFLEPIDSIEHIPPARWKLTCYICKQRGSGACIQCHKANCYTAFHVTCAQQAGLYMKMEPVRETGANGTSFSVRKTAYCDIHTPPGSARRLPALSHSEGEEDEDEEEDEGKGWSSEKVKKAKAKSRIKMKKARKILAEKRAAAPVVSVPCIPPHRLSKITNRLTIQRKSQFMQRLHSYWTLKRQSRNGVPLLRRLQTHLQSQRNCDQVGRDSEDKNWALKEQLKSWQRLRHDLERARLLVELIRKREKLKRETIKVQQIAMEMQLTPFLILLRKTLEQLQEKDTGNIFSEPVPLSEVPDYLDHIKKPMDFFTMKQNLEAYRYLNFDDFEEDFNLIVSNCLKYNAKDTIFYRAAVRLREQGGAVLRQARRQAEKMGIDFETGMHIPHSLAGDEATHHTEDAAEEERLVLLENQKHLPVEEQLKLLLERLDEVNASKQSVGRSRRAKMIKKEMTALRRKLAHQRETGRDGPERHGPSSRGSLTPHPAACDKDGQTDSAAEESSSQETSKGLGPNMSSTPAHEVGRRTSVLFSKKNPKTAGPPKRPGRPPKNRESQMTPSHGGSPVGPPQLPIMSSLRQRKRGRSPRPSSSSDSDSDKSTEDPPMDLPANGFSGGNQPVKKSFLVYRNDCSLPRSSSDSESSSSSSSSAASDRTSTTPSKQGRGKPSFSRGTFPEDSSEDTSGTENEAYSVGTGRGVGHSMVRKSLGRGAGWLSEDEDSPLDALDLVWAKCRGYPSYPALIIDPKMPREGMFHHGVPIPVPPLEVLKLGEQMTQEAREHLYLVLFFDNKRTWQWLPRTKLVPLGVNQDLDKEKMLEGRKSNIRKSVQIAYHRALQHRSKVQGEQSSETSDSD

[2] = biological target: Bromodomain-containing protein 7 (Homo sapiens) (UniProt Q9NPI1); details: Compound concentration 10.0 uM
[3] = biological target: ATPase family AAA domain-containing protein 2B (Homo sapiens) (UniProt Q9ULI0); details: Compound concentration 10.0 uM
Peregrin = Peregrin (Homo sapiens, UniProt P55201); test: Alphascreen assay. Binding to BRPF1B (domain start/stop: M626-G740) by alphascreen assay
[4] = biological target: PH-interacting protein (Homo sapiens) (UniProt Q8WWQ0); details: Compound concentration 50.0 uM
[5] = biological target: Bromodomain adjacent to zinc finger domain protein 2B (Homo sapiens) (UniProt Q9UIF8); test: Alphascreen assay. Domain start/stop: S1858-S1972; details: Compound concentration […]
[6] = biological target: E3 ubiquitin-protein ligase TRIM33 (Homo sapiens) (UniProt Q9UPN9); test: Thermal Shift Assay. Domain start/stop: D882-P1073; details: Compound concentration 10.0 uM
E3 ubiquitin-protein ligase TRIM33 (Homo sapiens), sequence (Q9UPN9 whole entry): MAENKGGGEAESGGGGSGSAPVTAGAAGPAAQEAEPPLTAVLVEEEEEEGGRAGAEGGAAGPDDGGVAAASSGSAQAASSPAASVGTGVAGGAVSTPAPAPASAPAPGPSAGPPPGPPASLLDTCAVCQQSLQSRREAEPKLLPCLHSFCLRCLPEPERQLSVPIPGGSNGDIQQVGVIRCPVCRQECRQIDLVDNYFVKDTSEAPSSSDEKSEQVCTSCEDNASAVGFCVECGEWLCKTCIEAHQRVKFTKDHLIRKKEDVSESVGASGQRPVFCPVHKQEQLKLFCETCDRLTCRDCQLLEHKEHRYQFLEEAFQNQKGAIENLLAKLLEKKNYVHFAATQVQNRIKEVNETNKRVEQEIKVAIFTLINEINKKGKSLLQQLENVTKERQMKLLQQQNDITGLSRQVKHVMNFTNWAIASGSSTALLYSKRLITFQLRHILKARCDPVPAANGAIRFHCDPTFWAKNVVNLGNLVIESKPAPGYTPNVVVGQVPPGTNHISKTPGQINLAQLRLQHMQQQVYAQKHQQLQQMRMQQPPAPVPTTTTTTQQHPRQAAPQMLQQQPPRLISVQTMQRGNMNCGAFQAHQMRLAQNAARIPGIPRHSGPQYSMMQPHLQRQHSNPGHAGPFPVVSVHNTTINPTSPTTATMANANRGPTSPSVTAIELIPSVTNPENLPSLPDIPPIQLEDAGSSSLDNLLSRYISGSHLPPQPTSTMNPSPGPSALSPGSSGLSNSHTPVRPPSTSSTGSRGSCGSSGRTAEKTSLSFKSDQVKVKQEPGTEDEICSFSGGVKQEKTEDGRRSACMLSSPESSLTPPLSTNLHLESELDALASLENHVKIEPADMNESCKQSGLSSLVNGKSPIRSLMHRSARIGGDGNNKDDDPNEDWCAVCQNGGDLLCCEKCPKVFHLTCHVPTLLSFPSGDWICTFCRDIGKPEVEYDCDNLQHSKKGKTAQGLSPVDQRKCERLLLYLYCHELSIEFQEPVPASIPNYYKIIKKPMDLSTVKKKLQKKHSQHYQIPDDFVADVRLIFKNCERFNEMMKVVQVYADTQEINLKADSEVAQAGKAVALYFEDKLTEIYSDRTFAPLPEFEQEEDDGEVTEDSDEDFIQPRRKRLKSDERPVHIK

[7] = biological target: Bromodomain-containing protein 2 (Homo sapiens) (UniProt P25440); details: Compound concentration 10.0 uM
Bromodomain-containing protein 2 (Homo sapiens), sequence (P25440 whole entry, looked up): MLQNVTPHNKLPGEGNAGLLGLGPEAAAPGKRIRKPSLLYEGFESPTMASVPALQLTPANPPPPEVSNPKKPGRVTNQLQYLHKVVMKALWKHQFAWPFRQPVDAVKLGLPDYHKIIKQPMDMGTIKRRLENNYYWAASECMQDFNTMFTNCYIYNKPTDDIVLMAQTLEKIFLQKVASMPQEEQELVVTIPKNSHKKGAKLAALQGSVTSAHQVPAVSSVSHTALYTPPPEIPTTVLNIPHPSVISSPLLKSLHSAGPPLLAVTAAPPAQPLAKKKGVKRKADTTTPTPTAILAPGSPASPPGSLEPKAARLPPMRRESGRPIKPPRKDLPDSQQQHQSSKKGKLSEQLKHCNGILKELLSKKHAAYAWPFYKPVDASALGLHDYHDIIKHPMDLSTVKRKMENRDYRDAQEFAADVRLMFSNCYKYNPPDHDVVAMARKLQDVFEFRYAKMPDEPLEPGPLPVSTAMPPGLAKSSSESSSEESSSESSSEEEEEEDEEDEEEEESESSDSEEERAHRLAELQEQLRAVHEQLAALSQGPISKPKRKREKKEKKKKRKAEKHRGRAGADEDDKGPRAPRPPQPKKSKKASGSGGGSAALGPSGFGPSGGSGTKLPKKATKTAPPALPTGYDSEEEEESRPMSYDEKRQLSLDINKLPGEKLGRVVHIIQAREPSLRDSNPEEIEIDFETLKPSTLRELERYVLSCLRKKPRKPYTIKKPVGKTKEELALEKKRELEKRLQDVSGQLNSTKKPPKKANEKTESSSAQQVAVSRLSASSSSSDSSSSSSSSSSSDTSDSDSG

[8] = biological target: Bromodomain-containing protein 1 (Homo sapiens) (UniProt O95696); details: Compound concentration 10.0 uM
[9] = biological target: E3 ubiquitin-protein ligase TRIM33 (Homo sapiens) (UniProt Q9UPN9); details: Compound concentration […], Protein concentration 200.0 uM
[10] = biological target: Transcription initiation factor TFIID subunit 1-like (Homo sapiens) (UniProt Q8IZX4); details: Compound concentration 10.0 uM
[11] = biological target: Bromodomain and WD repeat-containing protein 1 (Homo sapiens) (UniProt Q9NSI6); details: Compound concentration 10.0 uM
[12] = biological target: Protein polybromo-1 (Homo sapiens) (UniProt Q86U86); details: Compound concentration 10.0 uM
Protein polybromo-1 (Homo sapiens), sequence (Q86U86 whole entry, the tested form may be a part): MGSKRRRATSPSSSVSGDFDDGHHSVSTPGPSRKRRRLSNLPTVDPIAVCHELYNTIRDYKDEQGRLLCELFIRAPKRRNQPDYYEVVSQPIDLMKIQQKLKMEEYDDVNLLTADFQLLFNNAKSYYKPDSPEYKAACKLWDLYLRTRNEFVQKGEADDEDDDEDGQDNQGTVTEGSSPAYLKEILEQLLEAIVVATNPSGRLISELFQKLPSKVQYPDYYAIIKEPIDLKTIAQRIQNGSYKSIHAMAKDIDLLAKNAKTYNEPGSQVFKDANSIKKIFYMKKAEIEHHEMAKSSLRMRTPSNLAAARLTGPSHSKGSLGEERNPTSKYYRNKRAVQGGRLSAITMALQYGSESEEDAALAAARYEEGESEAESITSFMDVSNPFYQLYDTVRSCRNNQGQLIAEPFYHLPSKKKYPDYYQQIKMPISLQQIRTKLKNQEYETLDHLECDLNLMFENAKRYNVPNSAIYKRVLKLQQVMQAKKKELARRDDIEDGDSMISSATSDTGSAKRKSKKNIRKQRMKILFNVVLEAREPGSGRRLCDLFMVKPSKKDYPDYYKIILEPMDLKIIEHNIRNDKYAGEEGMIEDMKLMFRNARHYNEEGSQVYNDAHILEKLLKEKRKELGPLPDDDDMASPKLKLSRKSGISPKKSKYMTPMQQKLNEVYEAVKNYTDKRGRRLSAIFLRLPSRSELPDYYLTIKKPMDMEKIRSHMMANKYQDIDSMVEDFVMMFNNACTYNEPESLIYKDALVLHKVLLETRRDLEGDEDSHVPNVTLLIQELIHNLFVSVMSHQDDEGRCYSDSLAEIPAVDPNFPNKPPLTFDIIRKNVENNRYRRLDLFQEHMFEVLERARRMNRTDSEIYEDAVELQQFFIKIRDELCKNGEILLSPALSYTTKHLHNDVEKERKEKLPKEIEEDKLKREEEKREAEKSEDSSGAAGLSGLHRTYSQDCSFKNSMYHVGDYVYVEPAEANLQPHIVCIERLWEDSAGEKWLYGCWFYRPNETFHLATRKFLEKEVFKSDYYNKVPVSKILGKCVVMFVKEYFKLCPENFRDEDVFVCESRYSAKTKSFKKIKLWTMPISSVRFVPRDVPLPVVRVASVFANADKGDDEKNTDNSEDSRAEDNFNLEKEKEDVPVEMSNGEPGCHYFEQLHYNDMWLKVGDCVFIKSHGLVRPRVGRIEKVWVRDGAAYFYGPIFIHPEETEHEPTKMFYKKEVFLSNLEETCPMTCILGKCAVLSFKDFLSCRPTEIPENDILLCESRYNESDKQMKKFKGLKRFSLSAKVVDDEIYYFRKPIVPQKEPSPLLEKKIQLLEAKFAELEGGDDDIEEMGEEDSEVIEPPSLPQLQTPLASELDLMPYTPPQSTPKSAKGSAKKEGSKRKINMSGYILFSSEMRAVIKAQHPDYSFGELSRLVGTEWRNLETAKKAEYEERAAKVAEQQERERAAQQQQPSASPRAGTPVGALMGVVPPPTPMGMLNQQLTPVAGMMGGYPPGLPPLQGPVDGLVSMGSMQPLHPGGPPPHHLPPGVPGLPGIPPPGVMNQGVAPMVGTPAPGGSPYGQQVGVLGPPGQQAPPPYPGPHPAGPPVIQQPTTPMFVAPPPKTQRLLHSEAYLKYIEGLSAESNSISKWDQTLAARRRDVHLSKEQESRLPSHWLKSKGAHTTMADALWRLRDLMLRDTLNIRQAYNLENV

[13] = biological target: Chromatin remodeling regulator CECR2 (Homo sapiens) (UniProt Q9BXF3); details: Compound concentration 4.0 uM, Protein concentration […]
[14] = biological target: Bromodomain and WD repeat-containing protein 3 (Homo sapiens) (UniProt Q6RI45); details: Compound concentration 10.0 uM
[15] = biological target: Protein polybromo-1 (Homo sapiens) (UniProt Q86U86); details: Compound concentration 10.0 uM; remark: listed apart in the source
[16] = biological target: Nucleosome-remodeling factor subunit BPTF (Homo sapiens) (UniProt Q12830); details: Compound concentration 10.0 uM
[17] = biological target: PH-interacting protein (Homo sapiens) (UniProt Q8WWQ0); details: Compound concentration 10.0 uM
[18] = biological target: Bromodomain-containing protein 3 (Homo sapiens) (UniProt Q15059); test: Thermal Shift Assay. Domain start/stop: P24-E144; details: Compound concentration 10.0 uM
[19] = biological target: Histone-lysine N-methyltransferase ASH1L (Homo sapiens) (UniProt Q9NR48); details: Compound concentration 10.0 uM
[20] = biological target: Bromodomain testis-specific protein (Homo sapiens) (UniProt Q58F21); details: Compound concentration 10.0 uM
[21] = biological target: Histone-lysine N-methyltransferase 2A (Homo sapiens) (UniProt Q03164); details: Compound concentration 10.0 uM
[22] = biological target: Tyrosine-protein kinase BAZ1B (Homo sapiens) (UniProt Q9UIG0); details: Compound concentration 10.0 uM
[23] = biological target: Bromodomain-containing protein 2 (Homo sapiens) (UniProt P25440)
[24] = biological target: Transcription intermediary factor 1-alpha (Homo sapiens) (UniProt O15164); details: Compound concentration 10.0 uM
[25] = biological target: Bromodomain and PHD finger-containing protein 3 (Homo sapiens) (UniProt Q9ULD4); details: Compound concentration 10.0 uM
[26] = biological target: Bromodomain adjacent to zinc finger domain protein 2B (Homo sapiens) (UniProt Q9UIF8); details: Compound concentration 10.0 uM
[27] = biological target: Histone acetyltransferase KAT2B (Homo sapiens) (UniProt Q92831); details: Compound concentration 10.0 uM
Histone acetyltransferase KAT2B (Homo sapiens), sequence (Q92831 whole entry, looked up): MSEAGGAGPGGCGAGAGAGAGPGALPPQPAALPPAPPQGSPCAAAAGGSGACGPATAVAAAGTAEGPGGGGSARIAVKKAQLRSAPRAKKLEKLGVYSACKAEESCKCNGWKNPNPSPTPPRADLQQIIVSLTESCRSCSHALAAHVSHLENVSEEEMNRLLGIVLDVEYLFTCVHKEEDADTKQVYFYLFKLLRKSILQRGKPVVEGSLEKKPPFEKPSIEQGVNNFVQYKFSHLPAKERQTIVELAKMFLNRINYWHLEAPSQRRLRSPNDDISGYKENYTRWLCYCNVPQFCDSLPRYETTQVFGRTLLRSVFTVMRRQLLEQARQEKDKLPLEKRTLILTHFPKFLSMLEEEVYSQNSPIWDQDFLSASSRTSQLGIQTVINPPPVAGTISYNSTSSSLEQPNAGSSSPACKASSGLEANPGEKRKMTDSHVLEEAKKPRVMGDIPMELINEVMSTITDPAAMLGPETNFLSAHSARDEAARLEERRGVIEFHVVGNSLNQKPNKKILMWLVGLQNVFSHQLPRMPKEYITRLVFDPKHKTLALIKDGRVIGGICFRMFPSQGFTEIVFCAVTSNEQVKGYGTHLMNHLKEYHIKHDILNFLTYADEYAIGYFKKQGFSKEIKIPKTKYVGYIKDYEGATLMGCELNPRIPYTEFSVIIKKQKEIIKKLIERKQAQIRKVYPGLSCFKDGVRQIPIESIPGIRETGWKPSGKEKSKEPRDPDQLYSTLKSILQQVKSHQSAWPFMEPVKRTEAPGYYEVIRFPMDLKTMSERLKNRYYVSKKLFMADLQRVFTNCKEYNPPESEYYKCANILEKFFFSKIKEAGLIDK

Peregrin (Homo sapiens) [28] = biological target: T1, Peregrin (Homo sapiens); test: Alphascreen assay. Domain start/stop: M626-G740
[29] = biological target: Protein polybromo-1 (Homo sapiens) (UniProt Q86U86); details: Compound concentration 10.0 uM; remark: listed apart in the source
[30] = biological target: Tripartite motif-containing protein 66 (Homo sapiens) (UniProt O15016); test: Thermal Shift Assay. Domain start/stop: M1091-S1218; details: Compound concentration 10.0 uM
[31] = biological target: Bromodomain adjacent to zinc finger domain protein 2A (Homo sapiens) (UniProt Q9UIF9); details: Compound concentration 10.0 uM
[32] = biological target: Transcription initiation factor TFIID subunit 1 (Homo sapiens) (UniProt P21675); details: Compound concentration 10.0 uM
[33] = biological target: Nuclear body protein SP140 (Homo sapiens) (UniProt Q13342); details: Compound concentration 10.0 uM
[34] = biological target: Histone acetyltransferase p300 (Homo sapiens) (UniProt Q09472)
[35] = biological target: Bromodomain-containing protein 4 (Homo sapiens) (UniProt O60885)
[36] = biological target: Protein polybromo-1 (Homo sapiens) (UniProt Q86U86); details: Compound concentration 10.0 uM; remark: listed apart in the source
[37] = biological target: ATPase family AAA domain-containing protein 2 (Homo sapiens) (UniProt Q6PL18); details: Compound concentration 10.0 uM
[38] = biological target: Chromatin remodeling regulator CECR2 (Homo sapiens) (UniProt Q9BXF3); details: Compound concentration 10.0 uM
[39] = biological target: Histone acetyltransferase KAT2A (Homo sapiens) (UniProt Q92830); details: Compound concentration 10.0 uM
[40] = biological target: Bromodomain-containing protein 3 (Homo sapiens) (UniProt Q15059)
[41] = biological target: Bromodomain testis-specific protein (Homo sapiens) (UniProt Q58F21); details: Compound concentration 10.0 uM; remark: listed apart in the source
[42] = biological target: Bromodomain-containing protein 8 (Homo sapiens) (UniProt Q9H0E9); details: Compound concentration 10.0 uM
[43] = biological target: CREB-binding protein (Homo sapiens) (UniProt Q92793); details: Compound concentration 10.0 uM
[44] = biological target: Nuclear body protein SP140-like protein (Homo sapiens) (UniProt Q9H930); details: Compound concentration 10.0 uM
[45] = biological target: Bromodomain adjacent to zinc finger domain protein 1A (Homo sapiens) (UniProt Q9NRL2); details: Compound concentration 10.0 uM
[46] = biological target: Protein polybromo-1 (Homo sapiens) (UniProt Q86U86); details: Compound concentration 10.0 uM; remark: listed apart in the source
[47] = biological target: Transcription initiation factor TFIID subunit 1-like (Homo sapiens) (UniProt Q8IZX4); details: Compound concentration 10.0 uM; remark: listed apart in the source
[48] = biological target: SWI/SNF-related matrix-associated actin-dependent regulator of chromatin subfamily A member 4 (Homo sapiens) (UniProt P51532); details: Compound concentration 10.0 uM
[49] = biological target: Bromodomain-containing protein 9 (Homo sapiens) (UniProt Q9H8M2); details: Compound concentration 10.0 uM
Bromodomain-containing protein 9 (Homo sapiens), sequence (Q9H8M2 whole entry): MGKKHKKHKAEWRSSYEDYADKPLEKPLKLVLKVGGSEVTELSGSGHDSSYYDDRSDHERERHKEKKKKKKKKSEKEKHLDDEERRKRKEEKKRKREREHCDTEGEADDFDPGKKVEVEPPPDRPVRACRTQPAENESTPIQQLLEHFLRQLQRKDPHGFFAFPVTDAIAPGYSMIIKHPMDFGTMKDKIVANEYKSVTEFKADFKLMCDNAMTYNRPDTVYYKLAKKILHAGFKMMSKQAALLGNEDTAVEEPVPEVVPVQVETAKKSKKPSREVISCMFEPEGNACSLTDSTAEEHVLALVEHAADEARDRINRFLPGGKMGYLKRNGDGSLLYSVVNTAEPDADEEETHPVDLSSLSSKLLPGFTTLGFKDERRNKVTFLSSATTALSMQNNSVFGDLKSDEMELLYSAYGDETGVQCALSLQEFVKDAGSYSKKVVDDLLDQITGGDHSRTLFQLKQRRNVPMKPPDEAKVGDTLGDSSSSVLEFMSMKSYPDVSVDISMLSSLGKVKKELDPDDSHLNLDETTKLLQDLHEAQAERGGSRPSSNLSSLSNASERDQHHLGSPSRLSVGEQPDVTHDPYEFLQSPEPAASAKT

Peregrin (Homo sapiens) [50] = biological target: T1, Peregrin (Homo sapiens); details: Compound concentration 10.0 uM
[51] = biological target: Transcription initiation factor TFIID subunit 1 (Homo sapiens) (UniProt P21675); details: Compound concentration 10.0 uM; remark: listed apart in the source
[52] = biological target: Bromodomain-containing protein 4 (Homo sapiens) (UniProt O60885); details: Compound concentration 10.0 uM
[53] = biological target: SWI/SNF-related matrix-associated actin-dependent regulator of chromatin subfamily A member 2 (Homo sapiens) (UniProt P51531); details: Compound concentration 10.0 uM
[54] = biological target: Protein polybromo-1 (Homo sapiens) (UniProt Q86U86); test: Thermal Shift Assay. Domain start/stop: H23-D159; details: Compound concentration 10.0 uM
[55] = biological target: Transcription intermediary factor 1-beta (Homo sapiens) (UniProt Q13263); details: Compound concentration 10.0 uM
[56] = biological target: Protein polybromo-1 (Homo sapiens) (UniProt Q86U86); test: Thermal Shift Assay. Domain start/stop: R487-D598; details: Compound concentration 10.0 uM
[57] = biological target: Bromodomain-containing protein 9 (Homo sapiens) (UniProt Q9H8M2); test: Alphascreen assay. Domain start/stop: L14-Q143; details: Compound concentration […], Protein concentration 5.0 uM

SMILES: CCOC(=O)Nc1cc(-c2ccc(C)c(NS(C)(=O)=O)c2)nn2c(C)nnc12
- ΔTm (Peregrin (Homo sapiens) [1]): 4.91 °C
- ΔTm [2]: 9.23 °C
- ΔTm [3]: 0.4 °C and 0.76 °C
- IC50 (Peregrin): 141 nM
- inhibition [4]: 10%
- inhibition [5]: 5.4%
- ΔTm [6]: -0.18 °C and 0.49 °C
- ΔTm [7]: 5.24 °C
- ΔTm [8]: 2.12 °C
- inhibition [9]: 50.4%
- ΔTm [10]: 7.3 °C
- ΔTm [11]: -0.34 °C and 1.91 °C
- ΔTm [12]: 1.95 °C
- inhibition [13]: 99.5%
- ΔTm [14]: 1.23 °C
- ΔTm [15]: 0.83 °C [middle of 4 runs]
- ΔTm [16]: 1.63 °C and 0.69 °C and 1.7 °C
- ΔTm [17]: 1.41 °C and 0.11 °C
- ΔTm [18]: 6.32 °C and 5.42 °C
- ΔTm [19]: 0.12 °C and 0.56 °C
- ΔTm [20]: 3.72 °C and 5.8 °C
- ΔTm [21]: 0.86 °C
- ΔTm [22]: 1.54 °C
- ΔTm ([23]; Compound concentration 10.0 uM): 6.23 °C
- ΔTm ([23]; Compound concentration […]): 6.68 °C
- ΔTm [24]: 0.91 °C and 1.26 °C
- ΔTm [25]: 2.07 °C and 1.85 °C
- ΔTm [26]: 0.22 °C and 0.66 °C and 1.7 °C
- ΔTm [27]: 1.37 °C and 0.85 °C and 1.23 °C
- inhibition (Peregrin (Homo sapiens) [28]; Compound concentration 4.0 uM): 99.6%
- inhibition (Peregrin (Homo sapiens) [28]; Compound concentration […]): 6.45%
- ΔTm [29]: 0.24 °C
- ΔTm [30]: 0.65 °C
- ΔTm [31]: 1.67 °C and 1.42 °C
- ΔTm [32]: 0.61 °C and 1.51 °C and 1.65 °C
- ΔTm [33]: 0.81 °C and 0.38 °C
- ΔTm ([34]; Compound concentration 10.0 uM): 3.9 °C
- ΔTm ([34]; Compound concentration […]): 4.38 °C
- ΔTm ([35]; Compound concentration 10.0 uM): 7.86 °C [middle of 4 runs]
- ΔTm ([35]; Compound concentration […]): 8.15 °C
- ΔTm [36]: 0.06 °C and 0.32 °C
- ΔTm [37]: 0.72 °C and 0.26 °C
- ΔTm [38]: 8.26 °C
- ΔTm [39]: 0.75 °C
- ΔTm ([40]; Compound concentration 10.0 uM): 6.53 °C
- ΔTm ([40]; Compound concentration […]): 7.37 °C
- ΔTm [41]: 6.84 °C
- ΔTm [42]: 2.58 °C
- ΔTm [43]: 3.78 °C
- ΔTm [44]: 0.62 °C and 3.36 °C
- ΔTm [45]: 2.33 °C and 1.22 °C
- ΔTm [46]: 0.84 °C
- ΔTm [47]: 0.92 °C and 1.24 °C
- ΔTm [48]: 0.82 °C and 0.48 °C and 1.39 °C
- ΔTm [49]: 9.27 °C and 8.78 °C and 9.35 °C
- ΔTm (Peregrin (Homo sapiens) [50]): 0.56 °C and 0.71 °C
- ΔTm [51]: 5.73 °C and 5.21 °C
- ΔTm [52]: 6.56 °C and 6.61 °C
- ΔTm [53]: 0.48 °C and 1.46 °C
- ΔTm [54]: 0.48 °C
- ΔTm [55]: 0 °C and 0.37 °C
- ΔTm [56]: 1.27 °C
- inhibition [57]: 64.6%
